Laboratory results reported in US7018642B2 (The Procter & Gamble Company, priority 2001, dated 2006).

Test system: P. aeruginosa strain PAO1
Experiment: Biofilm prevention screen (96-well microplate, crystal violet)
Format: cell-based
Conditions: Pseudomonas aeruginosa, 32 μM, positive = prevention, negative = enhancement of biofilm formation, quadruplicate, read-out: average percentage reduction of biofilm formed relative to DMSO controls
In short: (§1)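 Read-out is the mean % change in crystal-violet-stained biofilm (A586) against DMSO wells, quadruplicates, with positive values meaning prevention. Final compound levels were 250–500 μM plus dilutions such as 160 and 32 μM. Incubation ran 16–26 h with shaking, 30° C. for P. aeruginosa PAO1 and P. fluorescens, 37° C. for S. epidermidis, each in a strain-specific modified medium.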

In order of rising inhibition at 32 µM:
1. CCCCCCNC(=O)[C@H]1CCCN1C(=O)OC(C)(C)C [Compound 153]  -9%
2. CCCCCCNC(=O)[C@@H]1CCN1C(=O)OC(C)(C)C [Compound 283]  -7%
3. CCCCCCCCCCNC(=O)[C@@H]1CCCN1C(=O)OC(C)(C)C [Compound 12, N-(tert-Butoxycarbonyl)-L-proline n-decyl amide]  6%
4. CCCCCCCCNC(=O)[C@H]1CCCN1 [Compound 164]  6%
5. CCCCCCCCNC(=O)[C@@H]1CCCCN1C(=O)OC(C)(C)C [Compound 19]  10%

Same assay, conditions: Pseudomonas aeruginosa, 160 μM, positive = prevention, negative = enhancement of biofilm formation, quadruplicate, read-out: average percentage reduction of biofilm formed relative to DMSO controls

In order of falling inhibition at 160 µM:
1. CCCCCCCCNC(=O)[C@H]1CCCN1 [Compound 164]  11%
2. CCCCCCCCNC(=O)[C@@H]1CCCCN1C(=O)OC(C)(C)C [Compound 19]  -2%
3. CCCCCCNC(=O)[C@H]1CCCN1C(=O)OC(C)(C)C [Compound 153]  -6%
4. CCCCCCNC(=O)[C@@H]1CCN1C(=O)OC(C)(C)C [Compound 283]  -10%
5. CCCCCCCCCCNC(=O)[C@@H]1CCCN1C(=O)OC(C)(C)C [Compound 12, N-(tert-Butoxycarbonyl)-L-proline n-decyl amide]  -45%

Same assay, conditions: Pseudomonas aeruginosa, 390 μM, positive = prevention, negative = enhancement of biofilm formation, quadruplicate, read-out: average percentage reduction of biofilm formed relative to DMSO controls

In order of falling inhibition at 390 µM:
1. CCCCCCCCNC(=O)[C@H]1CCCN1 [Compound 164]  12%
2. CCCCCCNC(=O)[C@@H]1CCN1C(=O)OC(C)(C)C [Compound 283]  0%
3. CCCCCCNC(=O)[C@H]1CCCN1C(=O)OC(C)(C)C [Compound 153]  -4%
4. CCCCCCCCNC(=O)[C@@H]1CCCCN1C(=O)OC(C)(C)C [Compound 19]  -17%
5. CCCCCCCCCCNC(=O)[C@@H]1CCCN1C(=O)OC(C)(C)C [Compound 12, N-(tert-Butoxycarbonyl)-L-proline n-decyl amide]  -32%

Test system: P. fluorescens strain ATCC 13525
Experiment: as above
Format: cell-based
Conditions: Pseudomonas fluorescens, ATCC13525, 32 μM, positive = prevention, negative = enhancement of biofilm formation, quadruplicate, read-out: average percentage reduction of biofilm formed relative to DMSO controls
In short: as §1

In order of falling inhibition at 32 µM:
1. CCCCCCCCNC(=O)[C@H]1CCCN1 [Compound 164]  8%
2. CCCCCCNC(=O)[C@H]1CCCN1C(=O)OC(C)(C)C [Compound 153]  7%
3. CCCCCCCCNC(=O)[C@@H]1CCCCN1C(=O)OC(C)(C)C [Compound 19]  6%
4. CCCCCCNC(=O)[C@@H]1CCN1C(=O)OC(C)(C)C [Compound 283]  3%
5. CCCCCCCCCCNC(=O)[C@@H]1CCCN1C(=O)OC(C)(C)C [Compound 12, N-(tert-Butoxycarbonyl)-L-proline n-decyl amide]  -16%

Same assay, conditions: Pseudomonas fluorescens, ATCC13525, 160 μM, positive = prevention, negative = enhancement of biofilm formation, quadruplicate, read-out: average percentage reduction of biofilm formed relative to DMSO controls

In order of falling inhibition at 160 µM:
1. CCCCCCCCNC(=O)[C@@H]1CCCCN1C(=O)OC(C)(C)C [Compound 19]  8%
2. CCCCCCCCNC(=O)[C@H]1CCCN1 [Compound 164]  7%
3. CCCCCCNC(=O)[C@H]1CCCN1C(=O)OC(C)(C)C [Compound 153]  4%
4. CCCCCCNC(=O)[C@@H]1CCN1C(=O)OC(C)(C)C [Compound 283]  -1%
5. CCCCCCCCCCNC(=O)[C@@H]1CCCN1C(=O)OC(C)(C)C [Compound 12, N-(tert-Butoxycarbonyl)-L-proline n-decyl amide]  -42%

Same assay, conditions: Pseudomonas fluorescens, ATCC13525, 390 μM, positive = prevention, negative = enhancement of biofilm formation, quadruplicate, read-out: average percentage reduction of biofilm formed relative to DMSO controls

In order of rising inhibition at 390 µM:
1. CCCCCCCCCCNC(=O)[C@@H]1CCCN1C(=O)OC(C)(C)C [Compound 12, N-(tert-Butoxycarbonyl)-L-proline n-decyl amide]  -37%
2. CCCCCCNC(=O)[C@H]1CCCN1C(=O)OC(C)(C)C [Compound 153]  -3%
3. CCCCCCCCNC(=O)[C@@H]1CCCCN1C(=O)OC(C)(C)C [Compound 19]  10%
4. CCCCCCNC(=O)[C@@H]1CCN1C(=O)OC(C)(C)C [Compound 283]  13%
5. CCCCCCCCNC(=O)[C@H]1CCCN1 [Compound 164]  54%

Test system: S. epidermidis strain ATCC 35984
Experiment: as above
Format: cell-based
Conditions: Staphylococcus epidermidis, ATCC35984, 32 μM, positive = prevention, negative = enhancement of biofilm formation, quadruplicate, read-out: average percentage reduction of biofilm formed relative to DMSO controls
In short: as §1

In order of falling inhibition at 32 µM:
1. CCCCCCNC(=O)[C@@H]1CCN1C(=O)OC(C)(C)C [Compound 283]  -3%
2. CCCCCCNC(=O)[C@H]1CCCN1C(=O)OC(C)(C)C [Compound 153]  -8%
3. CCCCCCCCNC(=O)[C@H]1CCCN1 [Compound 164]  -8%
4. CCCCCCCCNC(=O)[C@@H]1CCCCN1C(=O)OC(C)(C)C [Compound 19]  -11%
5. CCCCCCCCCCNC(=O)[C@@H]1CCCN1C(=O)OC(C)(C)C [Compound 12, N-(tert-Butoxycarbonyl)-L-proline n-decyl amide]  -21%

Same assay, conditions: Staphylococcus epidermidis, ATCC35984, 160 μM, positive = prevention, negative = enhancement of biofilm formation, quadruplicate, read-out: average percentage reduction of biofilm formed relative to DMSO controls

In order of rising inhibition at 160 µM:
1. CCCCCCCCNC(=O)[C@@H]1CCCCN1C(=O)OC(C)(C)C [Compound 19]  -33%
2. CCCCCCNC(=O)[C@@H]1CCN1C(=O)OC(C)(C)C [Compound 283]  -10%
3. CCCCCCNC(=O)[C@H]1CCCN1C(=O)OC(C)(C)C [Compound 153]  -7%
4. CCCCCCCCCCNC(=O)[C@@H]1CCCN1C(=O)OC(C)(C)C [Compound 12, N-(tert-Butoxycarbonyl)-L-proline n-decyl amide]  -2%
5. CCCCCCCCNC(=O)[C@H]1CCCN1 [Compound 164]  -1%

Same assay, conditions: Staphylococcus epidermidis, ATCC35984, 390 μM, positive = prevention, negative = enhancement of biofilm formation, quadruplicate, read-out: average percentage reduction of biofilm formed relative to DMSO controls

In order of rising inhibition at 390 µM:
1. CCCCCCCCNC(=O)[C@H]1CCCN1 [Compound 164]  -35%
2. CCCCCCNC(=O)[C@@H]1CCN1C(=O)OC(C)(C)C [Compound 283]  -23%
3. CCCCCCNC(=O)[C@H]1CCCN1C(=O)OC(C)(C)C [Compound 153]  -17%
4. CCCCCCCCNC(=O)[C@@H]1CCCCN1C(=O)OC(C)(C)C [Compound 19]  -11%
5. CCCCCCCCCCNC(=O)[C@@H]1CCCN1C(=O)OC(C)(C)C [Compound 12, N-(tert-Butoxycarbonyl)-L-proline n-decyl amide]  31%

Test system: P. aeruginosa strain PAO1
Experiment: Improved biofilm dispersion screen (already-formed biofilms, crystal violet)
Format: cell-based
Conditions: Pseudomonas aeruginosa, 30 mM NaOH step, positive = dispersion, negative = enhancement of pre-existing biofilm, quadruplicate, read-out: average percentage reduction of biofilm relative to the two control values (dispersion)
In short: (§2)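 Biofilms were grown 24 h in duplicate plates without compound; one plate was crystal violet-stained for t0. On the other, fresh medium plus compound at 390 μM final was added for 22–26 h more, with DMSO controls giving t24. Value: average % biofilm reduction versus t0 and t24, quadruplicates.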

In order of rising inhibition at 390 µM:
1. CCCCCCCCCCNC(=O)[C@@H]1CCCN1C(=O)OC(C)(C)C [Compound 12, N-(tert-Butoxycarbonyl)-L-proline n-decyl amide]  -30%
2. CCCCCCCCNC(=O)[C@@H]1CCCCN1C(=O)OC(C)(C)C [Compound 19]  -25%
3. CCCCCCNC(=O)[C@@H]1CCN1C(=O)OC(C)(C)C [Compound 283]  -11%
4. CCCCCCNC(=O)[C@H]1CCCN1C(=O)OC(C)(C)C [Compound 153]  -7%
5. CCCCCCCCNC(=O)[C@H]1CCCN1 [Compound 164]  38%

Test system: P. fluorescens strain ATCC 13525
Experiment: as above
Format: cell-based
Conditions: Pseudomonas fluorescens, ATCC13525, 20 mM NaOH step, positive = dispersion, negative = enhancement of pre-existing biofilm, quadruplicate, read-out: average percentage reduction of biofilm relative to the two control values (dispersion)
In short: as §2

In order of rising inhibition at 390 µM:
1. CCCCCCCCCCNC(=O)[C@@H]1CCCN1C(=O)OC(C)(C)C [Compound 12, N-(tert-Butoxycarbonyl)-L-proline n-decyl amide]  -30%
2. CCCCCCNC(=O)[C@@H]1CCN1C(=O)OC(C)(C)C [Compound 283]  0%
3. CCCCCCCCNC(=O)[C@@H]1CCCCN1C(=O)OC(C)(C)C [Compound 19]  0%
4. CCCCCCNC(=O)[C@H]1CCCN1C(=O)OC(C)(C)C [Compound 153]  1%
5. CCCCCCCCNC(=O)[C@H]1CCCN1 [Compound 164]  47%

Test system: S. epidermidis strain ATCC 35984
Experiment: as above
Format: cell-based
Conditions: Staphylococcus epidermidis, ATCC35984, no NaOH, positive = dispersion, negative = enhancement of pre-existing biofilm, quadruplicate, read-out: average percentage reduction of biofilm relative to the two control values (dispersion)
In short: as §2

In order of falling inhibition at 390 µM:
1. CCCCCCCCCCNC(=O)[C@@H]1CCCN1C(=O)OC(C)(C)C [Compound 12, N-(tert-Butoxycarbonyl)-L-proline n-decyl amide]  0%
2. CCCCCCCCNC(=O)[C@H]1CCCN1 [Compound 164]  -3%
3. CCCCCCCCNC(=O)[C@@H]1CCCCN1C(=O)OC(C)(C)C [Compound 19]  -3%
4. CCCCCCNC(=O)[C@H]1CCCN1C(=O)OC(C)(C)C [Compound 153]  -10%
5. CCCCCCNC(=O)[C@@H]1CCN1C(=O)OC(C)(C)C [Compound 283]  -11%
